Tests used:
[1] = target: T1, Ras farnesyl transferase (Homo sapiens, UniProt P49354+P49356); assay: Ras farnesyl transferase inhibiting activity (filter-binding, tritium-farnesylpyrophosphate, Ras-CVLS substrate); assay type: biochemical; details: recombinant Ras farnesyl transferase, 30 minutes at 37° C., read-out: Ftase IC50
T1 construct: made in house

[2] = system: intracellular Ras farnesyl transferase, Rat2 cell line; assay: Intracellular Ras farnesyl transferase inhibiting activity in transformed Rat2 cells (35S-methionine labelling, Y13-259 immunoprecipitation, SDS-PAGE); assay type: cell-based; details: Rattus norvegicus; transformed Rat2 fibroblast cell line; concentration inhibiting 50% of farnesyl binding of Ras protein; read-out: Ftase CIC50
How it was run: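 Rat2 fibroblasts transformed with H-Ras, or with H-Ras carrying the K-Ras polybasic lysine C-terminus, were treated with compound (1% DMSO). After 4 h they were labelled for 20 h with 150 μCi/ml 35S-methionine. Lysates were immunoprecipitated with Y13-259, run on 13.5% SDS-PAGE and autoradiographed; CIC50 is the concentration halving farnesylated versus unfarnesylated Ras band intensity.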

[3] = target: T2, Geranylgeranyl transferase (Bos taurus, UniProt P29702+Q5EAD5); assay: Geranylgeranyl transferase inhibiting activity (geranylgeranyl pyrophosphate, Ras-CVIL substrate); assay type: biochemical; details: geranylgeranyl transferase purified from bovine brain, read-out: GGtase IC50
T2 construct: Geranylgeranyl transferase was purified from bovine brain; from tissue; host or cells: bovine brain
How it was run: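 Bovine-brain-purified enzyme run as in the farnesyl transferase assay, with geranylgeranyl pyrophosphate and Ras-CVIL substrate protein under similar reaction conditions.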

CCCCN1C(=O)N(CCCc2cncn2Cc2ccc(C#N)cc2)C(=O)C1(C)c1cccc2ccccc12 (stereo not drawn) [Compound 49, 4-{5-[3-(3-butyl-4-methyl-4-naphthalen-1-yl-2,5-dioxo-imidazolidin-1-yl)-propyl]-imidazol-1-ylmethyl}benzonitrile]
IC50 [1]: 55 nM
IC50 [2]: < 20 µM
IC50 [3]: > 10 µM

COCCOCN1C(=O)N(CCCc2cncn2Cc2ccc(C#N)cc2)C(=O)C1(C)c1cccc2ccccc12 (stereo not drawn) [Compound 50, 4-(5-{3-[3-(2-methoxy-ethoxymethyl)-4-methyl-4-naphthalen-1-yl-2,5-dioxo-imidazolidin-1-yl]-propyl}-imidazol-1-ylmethyl)-benzonitrile]
IC50 [1]: 55 nM
IC50 [2]: < 20 µM
IC50 [3]: > 10 µM

CCOC(=O)CN1C(=O)N(CCCc2cncn2Cc2ccc(C#N)cc2)C(=O)C1(C)c1cccc2ccccc12 (stereo not drawn) [Compound 51, (3-{3-[3-(4-cyanobenzyl)-3H-imidazol-4-yl]-propyl}-5-methyl-5-naphthalen-1-yl-2,4-dioxo-imidazolidin-1-yl)-acetic acid ethyl ester]
IC50 [1]: 19 nM
IC50 [2]: < 20 µM
IC50 [3]: > 10 µM

CC1(c2cccc3ccccc23)C(=O)N(CCCc2cncn2Cc2ccc(C#N)cc2)C(=O)N1CC(=O)O (stereo not drawn) [Compound 52, (3-{3-[3-(4-cyanobenzyl)-3H-imidazol-4-yl]-propyl}-5-methyl-5-naphthalen-1-yl-2,4-dioxo-imidazolidin-1-yl)-acetic acid]
IC50 [1]: 19 nM
IC50 [2]: < 20 µM
IC50 [3]: > 10 µM

CC1(c2cccc3ccccc23)C(=O)N(CCCc2cncn2Cc2ccc(C#N)cc2)C(=O)N1Cc1ccccc1 (stereo not drawn) [Compound 53, 4-(5-{3-[3-benzyl-4-methyl-4-naphthalen-1-yl-2,5-dioxo-imidazolidin-1-yl]-propyl}-imidazol-1-ylmethyl)-benzonitrile]
IC50 [1]: 65 nM
IC50 [2]: < 20 µM
IC50 [3]: > 10 µM

CC1(c2cccc3ccccc23)C(=O)N(CCCc2cncn2Cc2ccc(C#N)cc2)C(=O)N1Cc1cccc(C#N)c1 (stereo not drawn) [Compound 54, 4-(5-{3-[3-(3-cyano-benzyl)-4-methyl-4-naphthalen-1-yl-2,5-dioxo-imidazolidin-1-yl]-propyl}-imidazol-1-ylmethyl)-benzonitrile]
IC50 [1]: 50 nM
IC50 [2]: < 20 µM
IC50 [3]: > 10 µM

CC1(c2cccc3ccccc23)C(=O)N(CCCc2cncn2Cc2ccc(C#N)cc2)C(=O)N1Cc1ccco1 (stereo not drawn) [Compound 55, 4-{5-[3-(3-furan-2-ylmethyl-4-methyl-4-naphthalen-1-yl-2,5-dioxo-imidazolidin-1-yl)-propyl]-imidazol-1-ylmethyl}-benzonitrile]
IC50 [1]: 45 nM
IC50 [2]: < 20 µM
IC50 [3]: > 10 µM

CC1(c2cccc3ccccc23)C(=O)N(CCCc2cncn2Cc2ccc(C#N)cc2)C(=O)N1C(=O)c1ccco1 (stereo not drawn) [Compound 56, 4-(5-{3-[3-(furan-2-carbonyl)-4-methyl-4-naphthalen-1-yl-2,5-dioxo-imidazolidin-1-yl]-propyl}-imidazol-1-ylmethyl)-benzonitrile]
IC50 [1]: 80 nM
IC50 [2]: < 20 µM
IC50 [3]: > 10 µM

COC(=O)C(CCSC)NC(=O)CN1C(=O)N(CCCc2cncn2Cc2ccc(C#N)cc2)C(=O)C1(C)c1cccc2ccccc12 (stereo not drawn) [Compound 57, 2-[2-(3-{3-[3-(4-cyanobenzyl)-3H-imidazol-4-yl]-propyl}-5-methyl-5-naphthalen-1-yl-2,4-dioxo-imidazolidin-1-yl)acetylamino]-4-methylsulfanyl-butyric acid methyl ester]
IC50 [1]: 16 nM
IC50 [2]: 400 µM
IC50 [3]: > 10 µM

CSCCC(NC(=O)CN1C(=O)N(CCCc2cncn2Cc2ccc(C#N)cc2)C(=O)C1(C)c1cccc2ccccc12)C(=O)O (stereo not drawn) [Compound 58, 2-[2-(3-{3-[3-(4-cyanobenzyl)-3H-imidazol-4-yl]-propyl}-5-methyl-5-naphthalen-1-yl-2,4-dioxo-imidazolidin-1-yl)-acetylamino]-4-methylsulfanyl-butyric acid]
IC50 [1]: 14 nM
IC50 [2]: < 20 µM
IC50 [3]: > 10 µM

CC1(c2cccc3ccccc23)NC(=O)N(Cc2cncn2Cc2ccc(C#N)cc2)C1=O (stereo not drawn) [Compound 59, 4-[5-(4-methyl-4-naphthalen-1-yl-2,5-dioxo-imidazolidin-1-ylmethyl)-imidazol-1-ylmethyl]-benzonitrile]
IC50 [1]: 440 nM
IC50 [2]: < 20 µM
IC50 [3]: > 10 µM

CN1C(=O)N(Cc2cncn2Cc2ccc(C#N)cc2)C(=O)C1(C)c1cccc2ccccc12 (stereo not drawn) [Compound 60, 4-[5-(3-methyl-4-methyl-4-naphthalen-1-yl-2,5-dioxo-imidazolidin-1-ylmethyl)-imidazol-1-ylmethyl]-benzonitrile]
IC50 [1]: 160 nM
IC50 [2]: < 20 µM
IC50 [3]: > 10 µM

CCN1C(=O)N(Cc2cncn2Cc2ccc(C#N)cc2)C(=O)C1(C)c1cccc2ccccc12 (stereo not drawn) [Compound 61, 4-[5-(3-ethyl-4-methyl-4-naphthalen-1-yl-2,5-dioxo-imidazolidin-1-ylmethyl)-imidazol-1-ylmethyl]-benzonitrile]
IC50 [1]: 160 nM
IC50 [2]: < 20 µM
IC50 [3]: > 10 µM

CCOC(=O)CN1C(=O)N(Cc2cncn2Cc2ccc(C#N)cc2)C(=O)C1(C)c1cccc2ccccc12 (stereo not drawn) [Compound 62, {3-[3-(4-cyano-benzyl)-3H-imidazol-4-ylmethyl]-5-methyl-5-naphthalen-1-yl-2,4-dioxo-imidazolidin-1-yl)-acetic acid ethyl ester]
IC50 [1]: 50 nM
IC50 [2]: < 20 µM
IC50 [3]: > 10 µM

CC1(c2cccc3ccccc23)C(=O)N(Cc2cncn2Cc2ccc(C#N)cc2)C(=O)N1Cc1cccc(C#N)c1 (stereo not drawn) [Compound 63]
IC50 [1]: 50 nM
IC50 [2]: < 20 µM
IC50 [3]: > 10 µM

COc1ccc(C(=O)N2C(=O)N(CCCn3ccnc3)C(=O)C2(C)c2cccc3ccccc23)cc1 (stereo not drawn) [Compound 64, 3-(3-imidazol-1-yl-propyl)-1-(4-methoxy-benzoyl)-5-methyl-5-naphthalen-1-yl-imidazolidin-2,4-dione]
IC50 [1]: 700 nM
IC50 [2]: < 20 µM
IC50 [3]: > 10 µM

CC1(c2cccc3ccccc23)C(=O)N(CCCn2ccnc2)C(=O)N1C(=O)N1CCOCC1 (stereo not drawn) [Compound 65, 3-(3-imidazol-1-yl-propyl)-5methyl-1-(morpholine-4-carbonyl)-5-naphthalen-1-yl-imidazolidin-2,4-dione]
IC50 [1]: 4500 nM
IC50 [2]: < 20 µM
IC50 [3]: > 10 µM

CC1(c2cccc3ccccc23)C(=O)N(CCCn2ccnc2)C(=O)N1C(=O)Nc1cccc(C#N)c1 (stereo not drawn) [Compound 66, 3-(3-imidazol-1-yl-propyl)-5-methyl-5-naphthalen-1-yl-2,4-dioxo-imidazolidin-1-carboxylic acid (3-cyano-phenyl)-amide]
IC50 [1]: 200 nM
IC50 [2]: < 20 µM
IC50 [3]: > 10 µM

CC1(c2cccc3ccccc23)C(=O)N(CCCn2ccnc2)C(=O)N1CC(=O)NC1(C#N)CCOCC1 (stereo not drawn) [Compound 67, N-(4-cyano-tetrahydropyran-4-yl)-2-[3-(3-imidazol-1yl-propyl)-5-methyl-5-naphthalen-1-yl-2,4-dioxo-imidazolidin-1-yl]-acetamide]
IC50 [1]: 3600 nM
IC50 [2]: < 20 µM
IC50 [3]: > 10 µM

CC1(c2cccc3ccccc23)NC(=O)N(CCCc2cncn2Cc2ccc(Br)cc2)C1=O (stereo not drawn) [Compound 68, 3-{3-[3-(4-bromo-benzyl)-3H-imidazol-4-yl]-propyl}-5-methyl-5-naphthalen-1-yl-imidazolidin-2,4-dione]
IC50 [1]: 5000 nM
IC50 [2]: < 20 µM
IC50 [3]: > 10 µM

CN1C(=O)N(CCCc2cncn2Cc2ccc(Br)cc2)C(=O)C1(C)c1cccc2ccccc12 (stereo not drawn) [Compound 69, 3-{3-[3-(4-bromo-benzyl)-3H-imidazol-4-yl]-propyl}-1,5-di-methyl-5-naphthalen-1-yl-imidazolidin-2,4-dione]
IC50 [1]: 300 nM
IC50 [2]: < 20 µM
IC50 [3]: > 10 µM

CCOC(=O)CN1C(=O)N(CCCc2cncn2Cc2ccc(Br)cc2)C(=O)C1(C)c1cccc2ccccc12 (stereo not drawn) [Compound 70, (3-{3-[3-(4-bromo-benzyl)-3H-imidazol-4-yl]-propyl}-5-methyl-5-naphthalen-1-yl-2,4-dioxo-imidazolidin-1-yl)-acetic acid ethyl ester]
IC50 [1]: 5000 nM
IC50 [2]: < 20 µM
IC50 [3]: > 10 µM

CC1(c2ccccc2)C(=O)N(CCCn2ccnc2)C(=O)N1Cc1cccc(C#N)c1 (stereo not drawn) [Compound 71, 3-[3-(3-imidazol-1-yl-propyl)-5-methyl-5-phenyl-2,4-dioxo-imidazolidin-1-ylmethyl]-benzonitrile]
IC50 [1]: 7000 nM
IC50 [2]: < 20 µM
IC50 [3]: > 10 µM

N#Cc1ccc(Cn2cncc2CN2C(=O)CN(c3cccc4ccccc34)C2=O)cc1 [Compound 72, 4-[5-(3-naphthaten-1-yl-2,5-dioxo-imidazolidin-1-ylmethyl)-imidazol-1-ylmethyl]-benzonitrile]
IC50 [1]: 20 nM
IC50 [2]: < 20 µM
IC50 [3]: > 10 µM

O=C1CN(c2cccc3ccccc23)C(=O)N1Cc1cncn1Cc1ccc(Cl)cc1 [Compound 73, 3-[3-(4-chloro-benzyl)-3H-imidazol-4-ylmethyl]-1-naphthalen-1-yl-imidazolidin-2,4-dione]
IC50 [1]: 800 nM
IC50 [2]: < 10 µM
IC50 [3]: > 10 µM

O=C(OCc1ccccc1)N1CCC(Cn2cncc2CN2C(=O)CN(c3cccc4ccccc34)C2=O)CC1 [Compound 74, 4-[5-(3-naphthalen-1-yl-2,5-dioxo-imidazolidin-1-ylmethyl)-imidazol-1-ylmethyl]-piperidine-1-carboxylic acid benzyl ester]
IC50 [1]: 4000 nM
IC50 [2]: < 50 µM
IC50 [3]: > 10 µM

From US6384061B1, “Hydantoin compounds and methods related thereto” (LG Chemical Ltd., priority 2000, dated 2002)
